# Results taken from patent publication US20060079453A1, “Hla binding peptides and their uses” (priority 2002, published 2006).
# pIC50: −log10 of the molar value. No end group written: not given here.
# Assays:
# Assay in all cases: biochemical
# Assay type in all cases: binding
# HLA-A*1101 = HLA-A*1101 (Homo sapiens, UniProt P04439, A114D/D185E/E176A/F33Y/L180Q/S129P/T187R)
# HLA-A*3301 = HLA-A*3301 (Homo sapiens, UniProt P04439, A270S/D185E/E176V/E277Q/E87N/F33T/G231S/H175R/I121M/I218V/I322F/K168Q/K210R/L300P/L318F/M331R/P217A/Q86R/Q94H/R138Q/T323A/T345S/T97I/V358M/Y195H)
# HLA-A*3101 = HLA-A*3101 (Homo sapiens, UniProt P04439, A270S/D185E/E176V/E277Q/F33T/G231S/G80R/H175R/I121M/I218V/I322F/K168Q/L300P/L318F/M331R/P217A/Q94H/R138Q/T323A/T345S/T97I/V358M)
# HLA-A*6801 = HLA-A*6801 (Homo sapiens, UniProt P04439, A269V/D185E/E176V/E277Q/E87N/F33Y/G231S/I121M/I166T/I218V/L180W/L300P/L318F/N151K/P208A/P217A/Q86R/R169H/T345S)
# HLA-A*0301 = HLA-A*0301 (Homo sapiens, UniProt P04439)
Sequence,pIC50 (HLA-A*1101),pIC50 (HLA-A*3301),pIC50 (HLA-A*3101),pIC50 (HLA-A*6801),pIC50 (HLA-A*0301)
AACWRSRRK,6.11,4.34,5.52,4.89,7.12
AFCWRPRRR,4.75,7.12,7.22,5.96,6.56
ALERLLSLK,6.43,4.89,5.46,4.86,6.63
ALKISQLQK,7.02,4.62,5.49,< 4.26,7.82
ALNAAAAAK,7.68,< 4.14,4.96,4.10,7.13
ALQAAAAAK,7.19,< 4.14,4.28,< 4.10,7.24
ATTDLTIVYR,8.00,5.76,7.47,7.85,
AVADLTVVYR,7.96,6.05,7.51,8.14,6.31
AVIFTPIYY,8.02,5.00,4.37,5.87,7.60
AVKDLCIVYR,7.18,8.10,8.14,8.19,6.08
AVKDLFVVYR,7.04,8.04,8.51,8.48,5.76
AVPGGYPRRK,7.22,< 5.25,4.40,6.07,6.09
AVSEIQNNK,7.96,4.59,,7.85,7.60
DSIPHAACHR,6.07,8.66,,7.57,5.56
DTIPHAACHK,6.15,8.03,5.75,7.64,5.63
DTLEQTLKR,4.89,8.04,4.42,6.96,4.50
DTVYGDTLEK,7.82,4.26,4.54,7.51,7.30
ELFDKDTFFK,,7.89,5.43,8.44,6.84
ELTEVFEFAFK,6.24,5.76,4.60,7.82,5.05
EQRLPLLPK,6.12,6.01,,5.72,5.96
ETNPFGICK,7.00,6.09,4.54,7.85,5.02
ETVRHFPR,5.38,7.09,6.00,7.07,< 4.87
EVLEIPLIDLR,4.78,7.14,4.44,7.57,< 4.33
EVYKFLFTDLR,6.22,8.37,,7.96,4.51
EVYNFACTELK,6.93,8.23,6.32,8.57,5.79
FAFADLTVVY,5.23,4.57,4.63,6.40,4.73

Sequence,pIC50 (HLA-A*1101),pIC50 (HLA-A*3301),pIC50 (HLA-A*3101),pIC50 (HLA-A*6801),pIC50 (HLA-A*0301)
FAFTDLTIVY,4.67,3.88,4.38,6.46,
FISFYLINK,8.05,5.84,5.66,7.74,7.72
FLFTDLRIVYR,,7.68,7.24,8.85,6.17
FLYLLNKKNK,6.32,6.11,5.37,6.81,6.75
FVVQLDIQSTK,6.07,4.50,,8.57,5.43
FVVYRDSIPK,7.09,6.84,5.21,7.52,6.58
GFNHQHLPAR,4.55,5.25,6.76,4.46,< 4.33
GLYNLLIRCLR,5.80,6.40,6.60,5.79,
GTGISYGRK,7.11,< 4.36,4.24,5.13,6.32
GTMYILLKK,8.92,5.07,7.54,8.51,8.66
GTRQTRKNK,5.51,< 4.53,4.87,4.73,
GVLDGLIYSK,7.68,< 4.60,5.22,6.08,
IALLIIPPK,6.97,5.85,,5.71,
ILDLWVYK,6.49,4.52,4.86,4.92,
ILYRDCIAY,5.74,4.35,,< 4.71,
KFIDFYSRIR,5.05,6.17,8.48,5.59,
KFSEYRHYCY,5.13,4.31,6.51,4.84,
KILIKIPVTK,7.22,4.60,5.78,4.71,
KMGPGPGK,,3.97,5.94,5.38,7.08
KQHTCYLIR,6.67,5.64,7.89,4.91,
KSKFGYGAK,6.22,< 3.91,,< 5.12,7.44
KTLGISYGRKK,,4.63,7.04,6.19,7.28
KVLCDLLIR,,5.23,7.18,5.04,6.44
LLFYSKVRR,7.14,6.56,,7.96,7.25
LQMMNVNLQK,8.14,5.95,,6.49,7.60
LVGPGPGK,,< 3.90,4.62,6.22,6.00

Sequence,pIC50 (HLA-A*1101),pIC50 (HLA-A*3301),pIC50 (HLA-A*3101),pIC50 (HLA-A*6801),pIC50 (HLA-A*0301)
LVYRDDFPK,7.89,5.71,5.52,6.89,
LVYSKVRKYR,6.21,7.31,,7.51,6.49
MQSSFFMNR,8.96,7.12,7.54,8.42,
NLVYGETLEK,,6.92,6.12,7.06,6.07
PAAYAAQGYK,,< 3.96,4.69,6.18,6.02
QLARQAKQH,,5.78,6.02,6.61,5.07
QMAGPGPGFK,8.21,5.32,,7.52,8.03
QMGPGPGNFK,,4.00,5.57,7.20,7.31
RFCLLFYSK,6.32,6.35,7.08,6.63,
RFEDPTRRPYK,6.36,5.75,7.28,5.13,
RFEVYQFAFK,6.21,5.54,,5.61,
RFHNIAGHYK,,7.10,8.59,7.64,7.60
RFYITTRYK,,7.01,7.82,4.76,8.72
RFYSKVSEFK,,5.35,7.52,6.26,7.57
RMYVGGVEH,6.56,< 3.91,,< 4.54,8.42
SLFGPGPGK,8.64,4.08,,7.44,8.47
SSPLFNNFYK,9.15,5.76,,8.20,7.00
SVYGTTLER,8.19,6.34,,7.68,7.55
TTRYKYLNK,6.07,6.19,,5.59,6.93
TVGPGPGPEK,7.77,4.01,4.99,7.64,
VTIRIGGQLR,,5.87,7.21,7.80,5.50
VTVGPGPGVWK,8.57,4.12,5.56,7.68,
VTVKVGGQLK,7.27,4.34,,6.98,6.69
VVHAQLPAR,6.90,7.92,8.47,6.70,
